Laboratory results from patent publication US10968188B2, “Benzothiazol compounds and methods using the same for treating neurodegenerative disorders” (1ST Biotherapeutics, Inc., priority 2017, dated 2021).

What was measured:
[1] = tested on: α-synuclein PFF induced PD mice; assay: Pole test in α-synuclein PFF induced PD mice; format: in vivo
Aβ25-35 induced AD mice [2] = assay: Y-maze spontaneous alternation in Aβ25-35 induced AD mice; format: in vivo; settings: orally once daily for 10 days; Example 4 1, 3 and 10 mg/kg, nilotinib 3 mg/kg
Aβ25-35 induced AD mice [3] = assay: Step-through passive avoidance (STPA) test in Aβ25-35 induced AD mice; format: in vivo; settings: orally once daily for 10 days; Example 4 1, 3 and 10 mg/kg, nilotinib 3 mg/kg
lipid peroxidation = assay: Lipid peroxidation in hippocampus homogenates of Aβ25-35 induced AD mice; format: in vivo; settings: once daily oral dosing of 3 mg/kg and 10 mg/kg
From the text: Y-maze test as a behavioral test was used to assess memory function and the willingness of rodents to explore new environments 10 Days after ICV injection of oligomeric Aβ25-35 peptide, the hippocampus was dissected out. And lipid peroxidation level was quantified in the hippocampus homogenates. ICV injection of oligomeric Aβ25-35 peptide induced lipid peroxidation, a marker for oxidative stress. […] (FIG. 7)

[4] = Oral dose pharmacokinetic study in mice

Row | SMILES | increased pole climb down time (sec) by α-synuclein PFF injection ([1]; 0.3, 1, 3 and 10 mg/kg orally once daily for 5 months) | deficits of alternation behavior (spatial working memory, Y-maze) (Aβ25-35 induced AD mice [2]) | contextual long-term memory deficits (STPA) (Aβ25-35 induced AD mice [3]) | lipid peroxidation in hippocampus (lipid peroxidation) | PK profile in mice [4] | pole climb down time ([1]; 10 mg/kg orally once daily for 5 months)
1 | Cc1ccncc1-c1ccc2nc(NC(=O)[C@@H]3C[C@@H]3F)sc2c1 [Example 4] | recovered by treatment of Example 4 in a dose-dependent manner | very significantly and fully alleviated | very significantly and fully alleviated | completely inhibited | good PK profiles | 
2 | Cc1cn(-c2cc(NC(=O)c3ccc(C)c(Nc4nccc(-c5cccnc5)n4)c3)cc(C(F)(F)F)c2)cn1 [Nilotinib, nilotinib, reference compound] |  | partially alleviated |  |  |  | slight improvement
